We go through 5 compounds from patent publication US6458778B1, “Estradienes” (Wyeth, priority 1997, dated 2002).

Assay [1] relates to Immature rats. Nature of the assay: In vivo uterotropic activity. The conditions noted are these: for Uterine Weight (mg) ± SD: immature rats; for estrogenic activity in vivo (in words): uterine stimulation compared with vehicle.
Assay [2] concerns the target T1, human estrogen receptor (hER-α) (Homo sapiens, UniProt P03372).
T1 sequence (P03372 1-595): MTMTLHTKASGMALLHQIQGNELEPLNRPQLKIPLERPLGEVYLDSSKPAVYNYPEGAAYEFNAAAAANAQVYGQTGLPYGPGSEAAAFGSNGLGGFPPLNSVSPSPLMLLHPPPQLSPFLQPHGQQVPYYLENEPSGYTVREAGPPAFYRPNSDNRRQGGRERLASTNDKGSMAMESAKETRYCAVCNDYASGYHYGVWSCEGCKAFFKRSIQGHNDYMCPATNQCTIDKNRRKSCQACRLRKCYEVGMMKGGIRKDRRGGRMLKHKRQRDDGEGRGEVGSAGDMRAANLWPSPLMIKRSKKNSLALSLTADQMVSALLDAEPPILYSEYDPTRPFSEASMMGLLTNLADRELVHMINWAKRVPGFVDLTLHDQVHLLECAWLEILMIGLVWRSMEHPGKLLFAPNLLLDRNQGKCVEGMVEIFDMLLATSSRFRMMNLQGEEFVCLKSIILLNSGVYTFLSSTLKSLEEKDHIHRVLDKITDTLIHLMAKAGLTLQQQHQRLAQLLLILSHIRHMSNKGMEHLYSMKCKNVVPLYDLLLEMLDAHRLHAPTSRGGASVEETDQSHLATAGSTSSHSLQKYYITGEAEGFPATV
Nature of the assay: Estrogen receptor binding, whole cell test procedure. The conditions noted are these: Ki of 5B estimated.

The structures appear in SMILES notation.

For `C[C@]12CC[C@H]3C(=CCC4=C3CC[C@@H](O)C4)[C@@H]1CCC2=O` [5A, estra-5(10),7-dien-3α-ol-17-one], the “Uterine Weight (mg) ± SD” value in assay [1] (1 μg, three days S.C.) stood at 28.7 ± 2.7 mg; in assay [1] (10 μg, three days S.C.), 33.3 ± 4.4 mg; in assay [1] (100 μg, three days S.C.) it was 66.5 ± 4.7 mg; in assay [1] (500 μg, three days S.C.), 78.9 ± 13.6 mg. Also, in assay [1] (in words, relative to approximately 30 μg/rat or 0.6 mg/kg for 5B), the “estimated EC50 compared with 5B” value is “somewhat lower”. Moreover, the “estrogenic activity in vivo (in words)” value in assay [1] was “significant estrogenic activity”.
For the compound `C[C@]12CCc3c(ccc4cc(O)ccc34)[C@@H]1CCC2=O` [equilenen], the Ki (as a rule, the equilibrium dissociation constant of an inhibitor or competing ligand from its target) in assay [2] is 375 nM.
For `C[C@]12CC[C@@H]3c4ccc(O)cc4CC[C@H]3[C@@H]1CCC2=O` [estrone, reference compound], the EC50 estimated in assay [1] (in similar test procedures) is 0.2 mg/kg.
For the compound `C[C@]12CC[C@H]3C(=CCC4=C3CC[C@H](O)C4)[C@@H]1CCC2=O` [5B, estra-5(10),7-dien-3β-ol-17-one], the “Uterine Weight (mg) ± SD” value in assay [1] (0.1 μg, three days S.C.) was found to be 34.1 ± 6.2 mg; in assay [1] (1 μg, three days S.C.), 31.7 ± 6.6 mg; in assay [1] (10 μg, three days S.C.), 43.5 ± 6.9 mg; in assay [1] (100 μg, three days S.C.) it was 79.7 ± 5.8 mg; in assay [1] (500 μg, three days S.C.), 82.6 ± 8.6 mg. In addition, in assay [1], the “estrogenic activity in vivo (in words)” value was “significant estrogenic activity”.
Turning to `C#C[C@]1(O)CC[C@H]2[C@@H]3CCc4cc(O)ccc4[C@H]3CC[C@@]21C` [Ethinyl Estradiol, ethinyl estradiol, reference compound], in assay [1] (0.5 μg, three days, positive control), the “Uterine Weight (mg) ± SD” value stood at 101.2 ± 2.8 mg.
